{"source": "paper PMC6882492", "about": "“Synthesis and biological evaluation of novel thienopyrimidine derivatives as diacylglycerol acyltransferase 1 (DGAT-1) inhibitors” (Journal of Enzyme Inhibition and Medicinal Chemistry, 2019)", "key": {"CYP2C9": {"target": "CYP2C9 (Homo sapiens, UniProt P11712)", "sequence (P11712 whole entry)": "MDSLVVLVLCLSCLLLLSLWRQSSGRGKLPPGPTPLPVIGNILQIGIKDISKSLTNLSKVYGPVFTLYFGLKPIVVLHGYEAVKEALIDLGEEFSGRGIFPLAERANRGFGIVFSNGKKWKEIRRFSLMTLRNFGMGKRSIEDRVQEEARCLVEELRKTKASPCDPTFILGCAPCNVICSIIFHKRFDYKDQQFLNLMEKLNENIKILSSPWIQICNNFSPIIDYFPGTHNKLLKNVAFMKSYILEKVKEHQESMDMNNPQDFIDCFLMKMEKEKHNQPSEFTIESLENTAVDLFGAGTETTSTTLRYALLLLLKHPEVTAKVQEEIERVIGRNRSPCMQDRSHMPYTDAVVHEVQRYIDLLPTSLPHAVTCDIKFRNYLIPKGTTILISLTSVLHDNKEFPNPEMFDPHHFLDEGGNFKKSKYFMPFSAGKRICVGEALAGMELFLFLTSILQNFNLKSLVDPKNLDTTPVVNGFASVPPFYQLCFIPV", "assay": "CYP inhibition assay CYP2C9", "type": "in vitro ADME", "settings": "fluorescence detection method; read-out: CYPs enzyme inhibition, IC50, CYP2C9"}, "[1]": {"assay": "Pharmacokinetic profile in ICR mice", "settings": "mouse, in vivo"}, "CYP1A2": {"target": "T1, CYP1A2 (Homo sapiens, UniProt P05177)", "T1 sequence (P05177 1-516)": "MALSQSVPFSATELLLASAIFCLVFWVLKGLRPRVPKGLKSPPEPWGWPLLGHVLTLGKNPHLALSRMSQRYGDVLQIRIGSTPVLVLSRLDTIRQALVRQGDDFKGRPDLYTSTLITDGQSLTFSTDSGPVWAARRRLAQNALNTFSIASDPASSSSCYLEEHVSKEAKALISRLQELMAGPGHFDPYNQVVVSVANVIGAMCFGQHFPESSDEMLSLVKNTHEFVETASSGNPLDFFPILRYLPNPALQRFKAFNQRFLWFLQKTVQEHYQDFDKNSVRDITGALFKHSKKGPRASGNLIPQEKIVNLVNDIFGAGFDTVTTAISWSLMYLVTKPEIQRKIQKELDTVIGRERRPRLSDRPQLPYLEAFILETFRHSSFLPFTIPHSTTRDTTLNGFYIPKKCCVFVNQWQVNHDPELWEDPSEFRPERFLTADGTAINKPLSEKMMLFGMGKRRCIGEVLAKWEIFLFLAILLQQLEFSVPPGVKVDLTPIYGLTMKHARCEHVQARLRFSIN", "assay": "CYP inhibition assay CYP1A2", "type": "in vitro ADME", "settings": "fluorescence detection method; read-out: CYPs enzyme inhibition, IC50, CYP1A2"}, "hDGAT1": {"target": "T2, hDGAT1 (Homo sapiens, UniProt O75907)", "T2 sequence (O75907 1-488)": "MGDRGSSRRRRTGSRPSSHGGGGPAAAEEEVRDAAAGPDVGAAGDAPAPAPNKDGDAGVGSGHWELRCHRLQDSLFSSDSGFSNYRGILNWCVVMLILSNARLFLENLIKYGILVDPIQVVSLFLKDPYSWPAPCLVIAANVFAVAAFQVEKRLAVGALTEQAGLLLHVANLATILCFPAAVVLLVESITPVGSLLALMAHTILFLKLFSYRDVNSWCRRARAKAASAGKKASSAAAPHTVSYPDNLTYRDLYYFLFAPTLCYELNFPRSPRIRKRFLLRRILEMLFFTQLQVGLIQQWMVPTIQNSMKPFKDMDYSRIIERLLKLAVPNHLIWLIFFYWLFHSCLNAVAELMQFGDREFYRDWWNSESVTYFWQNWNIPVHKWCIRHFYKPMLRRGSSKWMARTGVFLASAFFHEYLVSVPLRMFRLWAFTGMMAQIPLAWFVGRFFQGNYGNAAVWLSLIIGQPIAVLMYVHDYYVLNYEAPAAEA", "assay": "Enzymatic assay hDGAT1", "type": "biochemical", "description": "(§1) ACATs have sequence homology to DGAT-1 and play essential roles in cholesterol homeostasis. 17b was not explored in the enzymatic assays due to its poor pharmacokinetic profile."}, "plasma TAG level": {"tested_on": "plasma TAG level", "assay": "Oral lipid tolerance test (OLTT), mouse", "type": "in vivo", "settings": "ICR mice, 17a 3 mg/kg po before corn oil, n = 5", "experimental": "Male, Institute of Cancer Research (ICR) mice were obtained from OrientBio Inc. (Republic of Korea). ICR mice (8-weeks old, n = 5/group) fasted 16 h, received 5 mL/kg corn oil via oral administration (p.o.) 30 min after compound administration. Plasma was collected at different time points (0, 1, 2, and 4 h).\nTo determine in vivo efficacy, we evaluated the activity of 17a against serum TAG level induced by the oral administration of corn oil (oral lipid tolerance test, OLTT; Figures 3 and 4), since intestinal targeted DGAT-1 inhibition results in a reduced serum TAG level. 17a was orally administered to ICR mice at 3 mg/kg or to dogs at 1 mg/kg before administration of corn oil.\nFigure 3. Effect of 17a in the oral lipid tolerance test (n = 5, ***p < .001). Serum TG (or TAG) concentration was measured before and 1, 2, and 4 h after oral administration of corn oil in ICR mice treated with 17a (3 mg/kg) or 2 (1 mg/kg). Vehicle for 2: 0.5% methylcellulose/0.5% Tween80 in distilled water, vehicle for 17a: 0.5% Tween80 in distilled water."}, "[2]": {"assay": "Pharmacokinetic profile in dog", "type": "in vivo"}, "[3]": {"assay": "Pharmacokinetic profile in rat", "type": "in vivo"}, "hACAT1": {"target": "T3, hACAT1 (Homo sapiens, UniProt P35610)", "T3 sequence (P35610 1-550)": "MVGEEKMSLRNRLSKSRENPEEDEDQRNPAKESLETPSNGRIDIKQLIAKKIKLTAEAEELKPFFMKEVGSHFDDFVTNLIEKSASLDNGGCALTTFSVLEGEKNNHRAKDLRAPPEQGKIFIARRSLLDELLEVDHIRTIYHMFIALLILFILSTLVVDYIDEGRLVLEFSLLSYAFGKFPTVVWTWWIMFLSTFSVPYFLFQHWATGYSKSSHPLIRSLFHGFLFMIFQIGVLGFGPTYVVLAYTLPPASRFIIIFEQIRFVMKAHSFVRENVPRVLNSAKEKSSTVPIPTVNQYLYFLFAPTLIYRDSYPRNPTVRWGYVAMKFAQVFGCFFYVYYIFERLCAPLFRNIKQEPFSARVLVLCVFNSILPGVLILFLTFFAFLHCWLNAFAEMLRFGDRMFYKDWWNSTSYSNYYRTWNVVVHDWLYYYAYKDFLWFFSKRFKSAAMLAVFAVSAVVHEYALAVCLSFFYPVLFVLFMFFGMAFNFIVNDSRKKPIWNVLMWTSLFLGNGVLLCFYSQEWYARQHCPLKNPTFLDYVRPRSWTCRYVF", "assay": "Enzymatic assay hACAT1", "type": "biochemical", "description": "as §1"}, "CYP3A4": {"target": "CYP3A4 (Homo sapiens, UniProt P08684)", "sequence (P08684 whole entry)": "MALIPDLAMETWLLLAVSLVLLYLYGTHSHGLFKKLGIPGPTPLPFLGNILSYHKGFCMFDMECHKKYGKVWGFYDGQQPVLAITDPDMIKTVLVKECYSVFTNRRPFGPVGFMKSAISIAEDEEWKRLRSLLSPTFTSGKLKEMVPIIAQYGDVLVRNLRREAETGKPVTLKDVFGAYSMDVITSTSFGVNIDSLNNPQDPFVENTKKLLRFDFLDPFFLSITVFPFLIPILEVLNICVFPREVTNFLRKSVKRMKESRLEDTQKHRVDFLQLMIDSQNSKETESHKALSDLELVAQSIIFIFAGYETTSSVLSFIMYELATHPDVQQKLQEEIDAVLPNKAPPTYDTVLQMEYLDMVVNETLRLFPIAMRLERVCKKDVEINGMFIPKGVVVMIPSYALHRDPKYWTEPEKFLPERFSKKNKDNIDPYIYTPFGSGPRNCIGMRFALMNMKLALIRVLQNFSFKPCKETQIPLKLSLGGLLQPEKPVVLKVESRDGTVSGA", "assay": "CYP inhibition assay CYP3A4", "type": "in vitro ADME", "settings": "fluorescence detection method; read-out: CYPs enzyme inhibition, IC50, CYP3A4"}, "CYP2C19": {"target": "CYP2C19 (Homo sapiens, UniProt P33261)", "sequence (P33261 whole entry)": "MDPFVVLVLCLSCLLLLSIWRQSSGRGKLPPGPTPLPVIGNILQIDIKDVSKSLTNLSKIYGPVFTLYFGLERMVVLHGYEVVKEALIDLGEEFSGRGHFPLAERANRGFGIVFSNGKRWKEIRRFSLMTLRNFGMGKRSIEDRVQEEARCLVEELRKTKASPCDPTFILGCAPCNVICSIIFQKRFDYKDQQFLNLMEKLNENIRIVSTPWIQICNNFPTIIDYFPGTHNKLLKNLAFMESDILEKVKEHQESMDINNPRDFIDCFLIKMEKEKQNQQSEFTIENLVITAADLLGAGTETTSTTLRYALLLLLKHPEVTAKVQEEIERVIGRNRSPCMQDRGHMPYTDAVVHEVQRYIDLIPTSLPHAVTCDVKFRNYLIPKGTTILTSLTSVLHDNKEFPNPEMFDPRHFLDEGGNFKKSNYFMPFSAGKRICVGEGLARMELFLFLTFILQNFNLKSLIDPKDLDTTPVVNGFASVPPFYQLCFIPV", "assay": "CYP inhibition assay CYP2C19", "type": "in vitro ADME", "settings": "fluorescence detection method; read-out: CYPs enzyme inhibition, IC50, CYP2C19"}}, "data": [{"smiles": "O=C([O-])C[C@H]1CC[C@@H](c2csc3c(-c4ccc(NC(=O)Nc5cccc(Cl)c5)cc4)ncnc32)CC1.[Na+]", "note": "[Compound 17a, Sodium cis-2–(4–(4-(4-(3–(3-chlorophenyl)ureido)phenyl)thieno[3,2-d]pyrimidin-7-yl)cyclohexyl)acetate]", "values": [{"measurement": "IC50", "setting": "CYP2C9", "result": 2.9, "unit": "µM"}, {"measurement": "bioavailability", "setting": "[1]; oral 10 mg/kg vs iv 3 mg/kg", "result": 19, "unit": "%"}, {"measurement": "Cmax", "setting": "[1]; oral 10 mg/kg, n = 3", "result": 479, "unit": "ng/mL"}, {"measurement": "half-life", "setting": "[1]; oral 10 mg/kg, n = 3", "result": 1.2, "unit": "h"}, {"measurement": "AUC", "setting": "[1]; oral 10 mg/kg, n = 3, read-out: AUC 0∼24", "result": 861, "unit": "ng·h/mL"}, {"measurement": "IC50", "setting": "CYP1A2", "result": 10.6, "unit": "µM"}, {"measurement": "IC50", "setting": "hDGAT1", "result": 0.061, "unit": "µM"}, {"measurement": "Reduction of plasma TAG level in OLTT", "setting": "plasma TAG level", "result": "significant activity, as potent as compound 2"}, {"measurement": "Cl", "setting": "[2]; 1 mg/kg iv, 3 mg/kg po", "result": "6.7 ± 1.7", "unit": "mL/min/kg"}, {"measurement": "half-life", "setting": "[2]; in vivo, 3 mg/kg po", "result": "3.6 ± 0.7", "unit": "h"}, {"measurement": "bioavailability", "setting": "[2]; in vivo, 3 mg/kg po vs 1 mg/kg iv", "result": 53, "unit": "%"}, {"measurement": "AUC", "setting": "[2]; in vivo, 3 mg/kg po, read-out: AUC 0 ∼ 24", "result": "8240 ± 2300", "unit": "ng·h/mL"}, {"measurement": "Cl", "setting": "[3]; 3 mg/kg iv, 10 mg/kg po", "result": "8.3 ± 3.3", "unit": "mL/min/kg"}, {"measurement": "half-life", "setting": "[3]; in vivo, 10 mg/kg po", "result": "3 ± 0.4", "unit": "h"}, {"measurement": "bioavailability", "setting": "[3]; in vivo, 10 mg/kg po vs 3 mg/kg iv", "result": 30, "unit": "%"}, {"measurement": "AUC", "setting": "[3]; in vivo, 10 mg/kg po, read-out: AUC 0 ∼ 24", "result": 18600, "unit": "ng·h/mL"}, {"measurement": "IC50", "setting": "hACAT1", "result": "> 10", "unit": "µM"}, {"measurement": "IC50", "setting": "CYP3A4", "result": 16.2, "unit": "µM"}, {"measurement": "IC50", "setting": "CYP2C19", "result": "> 20", "unit": "µM"}]}]}
